Results on one molecule are retold here after patent EP0429333B1, “Process for producing oxazopyrroloquinolines, novel oxazopyrroloquinolines, and use of oxazopyrroloquinolines” (priority 1989, dated 1991).

One series is described as follows: Acute toxicity test. The following applies: mouse, in vivo, ip. The procedure:
(§1) (1) Acute toxicity test: • (i) To male SPF-ICR mice of 5 weeks old (supplied by Charles River Co.) were intraperitoneally administered PQQ·2Na and OPQs in the dosages of 20, 40, 80, 160 and 200 mg/kg body weight of mouse, respectively and they were bred at 25°C for 14 days. OPQ, 1-methylpropyl OPQ, 2-methylthioethyl OPQ, and benzyl OPQ were used as the OPQs. One group consisted of 8 mice. […] One group consisted of 8 mice. […] They were bred at 25°C for 14 days. One group consisted of eight mice. […] (2) Toxicity to kidney (i) Toxicity to kidney determined by urine examination: In the same manner as in the acute toxicity test, PQQ·2Na and OPQs were respectively intraperitoneally administered to mice and these mice were bred. Urine was collected every day and concentration of glucose in urine was obtained using Uristex II (manufactured by Miles·Sankyo Co.). […]

A further series concerns male SPF-ICR mice. As to the kind of experiment: Acute toxicity test. The procedure: as §1
For series [1], the target named is T1, aldose reductase of rabbit lens (Oryctolagus cuniculus, UniProt P15122).
T1 construct: to obtain electrophoretically homogeneous aldose reductase; from tissue; host or cells: rabbit lens
The series is described as follows: Inhibitory effect on aldose reductase of lens. In kind it is biochemical. The following applies: read-out: Degree of inhibition for aldose reductase (%). In short, it runs like this:
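Electrophoretically homogeneous aldose reductase purified from rabbit lens was assayed with NADPH (0.05 ml of 3 mM stock) and DL-glyceraldehyde in 0.1 M phosphate buffer pH 6.2 at 25 °C. Activity was followed as the decrease in A340 over time. Inhibition was calculated against activity without inhibitor, with compounds tested at various concentrations.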

For the next series, the system named is cataract. The series is described as follows: Anti-cataract effect, intraperitoneal administration, 50 % galactose fed rats. In kind it is in vivo, Sprague-Davley rats. The following applies: 2 mg, 5 mg, 10 mg and 20 mg per 1 kg of rat intraperitoneally once a day. The procedure: Eightyfour male Sprague-Davley rats (supplied from Japan Charles Liver Co.) of four weeks old and having a body weight of 70 - 80 g were used and the following experiments were conducted. One group consisted of six rats.
The groups included normal group, 50 % galactose administration group, PQQ administration group, and OPQ administration group. Commercially available feeding stuff (manufactured by Japan Clea Co.) was given to the rats of normal group, and rats of 50 % galactose administration group, PQQ administration group and OPQ administration group were allowed to freely take powdery feeding stuff comprising a mixture of the above-mentioned commercially available powder feeding stuff and D-galactose for food additive in equal weight.
To the rats of PQQ and OPQ administration groups were intraperitoneally administered PQQ·2Na or OPQ in a dosage of 2 mg, 5 mg, 10 mg and 20 mg per 1 kg of rat once a day simultaneously with starting of galactose feeding and until termination of feeding.
On the 6th day and the 9th day from starting of experiment, eyeball was observed by stereoscopic microscope and judgment on cataract was made according to the following criteria. A0: No muddiness (normal) A1: Light white muddiness in the surface portion. A2: A slight heavy white muddiness in the surface portion. A3: Heavy white muddiness in the surface portion. A4: Heavy white muddiness in the surface portion and a slight white muddiness in the core portion. A5: Heavy white muddiness in the surface portion and the core portion.

Series [2] concerns D-galactosamine-induced liver diseases. As to the kind of experiment: Pharmacological effect on D-galactosamine-induced liver diseases. The format is in vivo, SD rats. The following applies: intraperitoneally twice, 1.2 ml of 0.4, 1.0, 2.0 or 3.0 mg/ml; serum 23 hours after D-galactosamine. How it is done:
Thirty SD rats (male, 7 weeks old, body weight: about 240 g; supplied by Japan Charles River Co.) were divided to six groups (A-F) each consisting of five rats. All rats were fasted for 18 hours and 1.2 ml of solutions containing 0.4 mg/ml, 1.0 mg/ml, 2.0 mg/ml, and 3.0 mg/ml of OPQ were intraperitoneally administered to rats of groups C, D, E and F, respectively, and furthermore, after lapse of 40 minutes, OPQ in the same doses as above were intraperitoneally administered to the rats, respectively. In these cases, the OPQ was dissolved in physiological saline and administered to the rats. For the rats of group B, 1.2 ml of physiological saline was intraperitoneally administered in place of the OPQ solution.
Furthermore, after lapse of 20 minutes, 1.2 ml of a solution containing 0.2 mg/ml of D-galactosamine was subcutaneously injected to the rats of groups B-F. Neither OPQ nor D-galactosamine was administered to the rats of group A.
After lapse of 23 hours from administration of D-galactosamine, blood was collected from abdominal aorta and serum was obtained by centrifugal separation.
GPT, GOT and total amount of bilirubin were measured by clinical examination reagent (trademark: FUJI DRYCHEMSLIDE manufactured by Fuji Photo Film Co., Ltd.). The results are shown in Table 28 by average value of five rats.

Turning to `O=C(O)c1cc(C(=O)O)c2c(n1)c1ncoc1c1cc(C(=O)O)[nH]c12` [OPQ, oxazopyrroloquinoline], the LD50 – broadly, the dose expected to kill half of the subjects tested – at 336 h in the series “Acute toxicity test” is approximately 1000 mg/kg. The death of mice entry in the series with male SPF-ICR mice (0.1 - 0.4 g/kg intraperitoneally, 8 mice per group, 14 days) was “All mice survived”; with male SPF-ICR mice (0.8 g/kg intraperitoneally, 8 mice, 14 days), “two mice died”; in the series with male SPF-ICR mice (1.2 g/kg intraperitoneally, 8 mice, 14 days) it was “six mice died”; in the series on male SPF-ICR mice (mouse, in vivo) it was “no mice died”; with male SPF-ICR mice (orally 1.0 g, 1.5 g or 2.0 g/kg mouse, 8 mice per group, 14 days) it was “No mice died”. Besides, in series [1] (concentration 1x10^-7 M), the inhibition – broadly, the percentage by which the read-out fell short of the control – at 0.1 µM worked out at 43.2%. For the same molecule, the inhibition at 0.2 µM in series [1] (concentration 2x10^-7 M) is 54.5%. In addition, the inhibition at 0.5 µM in series [1] (concentration 5x10^-7 M) worked out at 63.1%. In addition, in series [1] (concentration 5x10^-8 M), the inhibition at 0.05 µM amounted to 31%. For the same molecule, the rats died entry with cataract is listed as “no rats died”. Besides, the “GPT, GOT and total amount of bilirubin which increased by administration of D-galactosamine” value in series [2] is reported as “all sharply decreased”.
